We go through 7 compounds from article PMC12459522, “Design and synthesis of N-substituted-2-butyl-4-chloro-1H-imidazole derivatives as potential ACE inhibitors: in vitro study, in-silico analysis, and a multifaceted CSD-supported crystallographic investigation” (RSC Advances, 2025).

One assay deals with ACE (Ovis aries, UniProt A0ACI6QSL6). Nature of the assay: In vitro colorimetric ACE inhibition assay (HHL substrate, hippuric acid release, 410 nm). Format: biochemical, sheep.
Chain of ACE (A0ACI6QSL6 entry or part of it): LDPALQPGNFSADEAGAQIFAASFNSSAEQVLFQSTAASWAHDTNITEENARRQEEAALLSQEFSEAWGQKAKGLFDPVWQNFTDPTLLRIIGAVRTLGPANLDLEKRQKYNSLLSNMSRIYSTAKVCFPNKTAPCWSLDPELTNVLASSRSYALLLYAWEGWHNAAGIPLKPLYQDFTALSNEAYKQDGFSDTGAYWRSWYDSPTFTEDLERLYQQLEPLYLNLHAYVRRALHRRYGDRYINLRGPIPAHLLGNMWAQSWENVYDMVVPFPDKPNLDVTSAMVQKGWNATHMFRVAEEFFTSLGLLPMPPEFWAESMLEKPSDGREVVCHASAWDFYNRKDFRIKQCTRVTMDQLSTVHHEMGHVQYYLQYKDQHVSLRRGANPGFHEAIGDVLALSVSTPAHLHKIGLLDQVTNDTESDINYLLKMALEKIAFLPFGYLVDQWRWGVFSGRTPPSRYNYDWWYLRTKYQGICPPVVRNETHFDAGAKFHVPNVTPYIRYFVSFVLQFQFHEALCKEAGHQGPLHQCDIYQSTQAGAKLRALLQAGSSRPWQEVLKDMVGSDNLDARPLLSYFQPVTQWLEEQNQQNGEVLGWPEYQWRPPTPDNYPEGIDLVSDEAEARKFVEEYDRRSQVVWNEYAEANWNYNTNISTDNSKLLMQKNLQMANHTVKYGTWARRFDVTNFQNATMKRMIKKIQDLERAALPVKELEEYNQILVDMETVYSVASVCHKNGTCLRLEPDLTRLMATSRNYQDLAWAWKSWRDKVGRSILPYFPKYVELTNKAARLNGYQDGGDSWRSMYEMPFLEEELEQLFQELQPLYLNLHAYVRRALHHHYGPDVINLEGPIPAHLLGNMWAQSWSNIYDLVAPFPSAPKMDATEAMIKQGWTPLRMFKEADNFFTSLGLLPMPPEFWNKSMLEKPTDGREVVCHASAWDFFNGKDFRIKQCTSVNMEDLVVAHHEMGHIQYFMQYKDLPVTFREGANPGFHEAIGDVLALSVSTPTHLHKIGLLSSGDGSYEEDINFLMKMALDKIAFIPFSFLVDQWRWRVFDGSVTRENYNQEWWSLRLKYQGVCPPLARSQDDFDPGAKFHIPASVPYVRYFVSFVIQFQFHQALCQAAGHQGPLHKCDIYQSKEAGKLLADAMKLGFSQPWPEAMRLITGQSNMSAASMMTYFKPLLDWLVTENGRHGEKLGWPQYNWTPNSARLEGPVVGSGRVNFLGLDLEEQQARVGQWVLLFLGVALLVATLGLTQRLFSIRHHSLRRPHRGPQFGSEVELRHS
Settings: not given
How it is done:
The ACE enzyme extract was preincubated with various concentrations of test compounds (4a–f) ranging from 250 nM to 25 μM, alongside the standard lisinopril (100–500 nM), for 10 minutes at 37 °C. The reaction was initiated by adding sodium borate buffer containing 0.3 M sodium chloride and 5 mM HHL, followed by a 30 minutes incubation at 37 °C. To terminate the reaction, 60 μL of 1 M HCl was added, which was subsequently followed by the addition of 120 μL of pyridine and 60 μL of benzene sulfonyl chloride for color development. The mixture was then cooled on ice for 5 minutes, and the resulting yellow color was measured spectrophotometrically at 410 nm. The reduction in HA concentration during the inhibition reaction, compared with that during the control reaction, was expressed as % inhibition, and the IC50 values were calculated via semilogarithmic plots. […] The IC50 values for the compounds and the standard lisinopril are presented in Table 1, and a bar graph comprising % inhibition is depicted in Fig. 2.
Sheep kidney acetone powder was prepared in the laboratory according to a modified protocol by Hector et al.[24] Fresh sheep kidney tissue was homogenized with prechilled acetone (1 : 3) and vacuum-filtered using a Buchner funnel. Re-extraction was performed until the solid residue turned colorless. This residue was air-dried and sifted to obtain a uniform powder, which was stored in an airtight container at 0–4 °C.
ACE was extracted from the prepared acetone powder as described by Jimsheena et al.[25] One gram of acetone powder was extracted via 10 mL of sodium borate buffer (0.05 M, pH 8.2) containing 0.3 M sodium chloride and 0.5% Triton X-100 at 4 °C for 18 hours. This extract was later centrifuged at 15 000g for 60 minutes at 4 °C. The supernatant was collected and dialyzed against the same buffer without Triton X-100 (3 L, the buffer was changed 3 times) for 24 hours. This extract was stored at −20 °C until further use. The specific activity was 0.8234 units per mg of protein.
ACE activity was calculated by measuring the release of hippuric acid (HA) from the substrate hippuryl-histidyl-leucine (HHL). One unit of ACE activity is defined as the amount of enzyme that releases 1 μmol of HA per minute at 37 °C and pH 8.2. The ACE enzyme extract was preincubated with different concentrations of the test compounds (250 nM to 25 μM) and a standard drug solution (lisinopril, 100–500 nM) for 10 minutes at 37 °C. The reaction was initiated by the addition of sodium borate buffer (0.05 M, pH 8.2) containing 0.3 M sodium chloride and 5 mM HHL. The mixture was incubated at 37 °C for 30 minutes, followed by the addition of 60 μL of 1 M HCl to stop the reaction. This was followed by the addition of 120 μL of pyridine and 60 μL of […] sulfonyl chloride (BSC) for color development. The mixture was mixed gently and cooled on ice for 5 minutes. The yellow color developed was measured spectrophotometrically at 410 nm.[25] The reduced HA concentration in the inhibition reaction compared with the control reaction is expressed as % inhibition, which was calculated as:% inhibition = 100 − (Atest/Acontrol) × 100,where Atest = absorbance of the test reaction and Acontrol = absorbance of the control reaction.
As to `NCCCC[C@H](N[C@@H](CCc1ccccc1)C(=O)O)C(=O)N1CCC[C@H]1C(=O)O` [Lisinopril, reference compound], the IC50 was determined as 300 ± 135 nM.

The assay is the same for the next values; noted with them: sheep kidney ACE extract, HHL substrate, 37 °C, pH 8.2; read-out: IC50 against the ACE.
“2-(2-Butyl-4-chloro-5-(hydroxymethyl)-1H-imidazol-1-yl)-1-(naphthalen-1-yl)ethan-1-ol [4d]”: the IC50 is 2120 ± 15 nM.

On to `CCCCc1nc(Cl)c(CO)n1CC(O)c1ccc(OC)cc1` (stereo not shown) [4a, 2-(2-Butyl-4-chloro-5-(hydroxymethyl)-1H-imidazol-1-yl)-1-(4-methoxyphenyl)ethan-1-ol], for which the IC50 is 2470 ± 102 nM.

Turning to `CCCCc1nc(Cl)c(CO)n1CC(O)c1ccc([N+](=O)[O-])cc1` (stereo not shown) [4b, 2-(2-Butyl-4-chloro-5-(hydroxymethyl)-1H-imidazol-1-yl)-1-(4-nitrophenyl)ethan-1-ol], the IC50 was 1310 ± 26 nM. Same read-out and setting: the figure for `CCCCc1nc(Cl)c(CO)n1CC(O)c1ccc(C)cc1` (stereo not shown) [4c, 2-(2-Butyl-4-chloro-5-(hydroxymethyl)-1H-imidazol-1-yl)-1-(p-tolyl)ethan-1-ol] is 1560 ± 65 nM; for `CCCCc1nc(Cl)c(CO)n1CC(O)c1ccc(Cl)cc1` (stereo not shown) [4e, 2-(2-Butyl-4-chloro-5-(hydroxymethyl)-1H-imidazol-1-yl)-1-(4-chlorophenyl)ethan-1-ol] it is 4890 ± 68 nM; for `CCCCc1nc(Cl)c(CO)n1CC(O)c1ccc(F)cc1` (stereo not shown) [4f, 2-(2-Butyl-4-chloro-5-(hydroxymethyl)-1H-imidazol-1-yl)-1-(4-fluorophenyl)ethan-1-ol] it is 7570 ± 85 nM.
